Test results taken from PMC8889550 (JACS Au, 2022).

Biological target: T1, horseradish peroxidase (HRP) (Armoracia rusticana, UniProt P00433)
T1 sequence (P00433 31-338): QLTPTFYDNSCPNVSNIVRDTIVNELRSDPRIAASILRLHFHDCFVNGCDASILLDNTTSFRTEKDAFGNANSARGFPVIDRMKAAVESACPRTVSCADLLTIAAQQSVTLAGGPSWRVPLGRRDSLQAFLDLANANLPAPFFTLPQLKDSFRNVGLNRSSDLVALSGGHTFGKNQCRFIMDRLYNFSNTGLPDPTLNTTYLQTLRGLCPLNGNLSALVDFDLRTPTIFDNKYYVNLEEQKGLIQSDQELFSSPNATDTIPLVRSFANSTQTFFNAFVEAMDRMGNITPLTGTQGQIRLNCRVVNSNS
Test: coupled GOx/HRP cascade, Resorufin formation in plate reader
Assay type: biochemical
Conditions: 200 μM Amplex Red; H2O2 generated by GOx from glucose; DNA-functionalized enzyme

coupled GOx/HRP cascade, Resorufin formation in plate reader: Amplex Red → Resorufin catalyzed by HRP
SMILES: CC(=O)N1c2ccc(O)cc2Oc2cc(O)ccc21 [Amplex Red]
